Results reported in ChEMBL document CHEMBL4308908, “Lamellarin-inspired potent topoisomerase I inhibitors with the unprecedented benzo[g][1]benzopyrano[4,3-b]indol-6(13H)-one scaffold” (Bioorg Med Chem, 2019).

Tests used:
SNB-75 = assay: Antiproliferative activity against human SNB75 cells after 48 hrs by SRB assay; format: functional; details: SNB-75, 48 h
OVCAR-3 = assay: Antiproliferative activity against human OVCAR3 cells after 48 hrs by SRB assay; format: functional; details: OVCAR-3, 48 h
KM12 = assay: Antiproliferative activity against human KM12 cells after 48 hrs by SRB assay; format: functional; details: KM12, 48 h
[1] = Toxicity in mouse Colon 26 cells implanted BALB/c mouse assessed as induction of body weight loss at 50 mg/kg, iv administered every 2 days for 7 times starting 1 day after tumor implantation and measured daily until day 20; format: organism-based; details: in vivo
DU-145 = assay: Antiproliferative activity against human DU145 cells after 48 hrs by SRB assay; format: functional; details: DU-145, 48 h
PC-3 = assay: Antiproliferative activity against human PC3 cells after 48 hrs by SRB assay; format: functional; details: PC-3, 48 h
LOX IMVI = assay: Antiproliferative activity against human LOXIMVI cells after 48 hrs by SRB assay; format: functional
MKN-28 = assay: Antiproliferative activity against human MKN28 cells after 48 hrs by SRB assay; format: functional; details: MKN-28, 48 h
SF-539 = assay: Antiproliferative activity against human SF539 cells after 48 hrs by SRB assay; format: functional; details: SF-539, 48 h

`COc1cc2c(ccc3c4c(=O)oc5cc(OC(=O)[C@@H](N)C(C)C)c(OC)cc5c4n(C)c23)cc1OC(=O)[C@@H](N)C(C)C.O=C(O)C(F)(F)F.O=C(O)C(F)(F)F` gave a GI50 (SNB-75) of 8.32 nM, a GI50 (OVCAR-3) of 56.2 nM and a GI50 (KM12) of 57.5 nM. For the same molecule, the Activity [1] was “Non-Toxic”, the GI50 (DU-145; read-out: GI50) was 3.2 nM and the GI50 (DU-145; read-out: pGI50 (converted)) was 3.16 nM. For the same molecule, the GI50 (PC-3) was 70.8 nM, the GI50 (LOX IMVI; read-out: GI50) was 2.5 nM and the GI50 (LOX IMVI; read-out: pGI50 (converted)) was 2.51 nM. The GI50 (MKN-28; read-out: GI50) was 41 nM, the GI50 (MKN-28; read-out: pGI50 (converted)) was 40.7 nM and the GI50 (SF-539) was 4.17 nM.
